In ChEMBL document CHEMBL3856233, “Identification of (R)-(2-Chloro-3-(trifluoromethyl)phenyl)(1-(5-fluoropyridin-2-yl)-4-methyl-6,7-dihydro-1H-imidazo[4,5-c]pyridin-5(4H)-yl)methanone (JNJ 54166060), a Small Molecule Antagonist of the P2X7 receptor” (J Med Chem, 2016):
Values after ≈ are worked out from the molar mass of the structure shown.

Assays:
P2X purinoceptor 7 [1] = biological target: T1, P2X purinoceptor 7 (Rattus norvegicus, UniProt Q64663); experiment: Antagonist activity at recombinant rat P2X7 receptor expressed in human 1321N1 cells assessed as inhibition of Bz-ATP-induced Ca2+ flux preincubated for 30 mins followed by agonist addition measured after 180 sec by calcium-4 dye based FLIPR assay; format: cell-based
T1 sequence (Q64663 whole entry): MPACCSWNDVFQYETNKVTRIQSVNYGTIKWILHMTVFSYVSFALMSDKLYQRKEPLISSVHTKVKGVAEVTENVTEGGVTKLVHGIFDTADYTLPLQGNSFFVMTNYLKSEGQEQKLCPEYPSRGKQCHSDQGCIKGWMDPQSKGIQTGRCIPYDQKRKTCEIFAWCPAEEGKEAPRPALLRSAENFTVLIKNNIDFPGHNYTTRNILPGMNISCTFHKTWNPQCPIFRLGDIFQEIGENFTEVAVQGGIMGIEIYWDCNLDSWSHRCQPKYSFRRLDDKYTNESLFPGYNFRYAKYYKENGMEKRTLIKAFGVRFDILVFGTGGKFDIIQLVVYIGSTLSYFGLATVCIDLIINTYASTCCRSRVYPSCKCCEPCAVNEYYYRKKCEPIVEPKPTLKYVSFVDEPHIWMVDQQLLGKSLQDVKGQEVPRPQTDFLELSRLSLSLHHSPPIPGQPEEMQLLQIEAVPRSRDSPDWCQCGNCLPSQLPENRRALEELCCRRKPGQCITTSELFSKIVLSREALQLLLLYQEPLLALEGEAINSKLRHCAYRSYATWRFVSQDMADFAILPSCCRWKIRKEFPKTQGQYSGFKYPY

P2X purinoceptor 7 [2] = biological target: T2, P2X purinoceptor 7 (Homo sapiens, UniProt Q99572); experiment: Antagonist activity at recombinant human P2X7 receptor expressed in human 1321N1 cells assessed as inhibition of Bz-ATP-induced Ca2+ flux preincubated for 30 mins followed by agonist addition measured after 180 sec by calcium-4 dye based FLIPR assay; format: cell-based
T2 sequence (Q99572 whole entry): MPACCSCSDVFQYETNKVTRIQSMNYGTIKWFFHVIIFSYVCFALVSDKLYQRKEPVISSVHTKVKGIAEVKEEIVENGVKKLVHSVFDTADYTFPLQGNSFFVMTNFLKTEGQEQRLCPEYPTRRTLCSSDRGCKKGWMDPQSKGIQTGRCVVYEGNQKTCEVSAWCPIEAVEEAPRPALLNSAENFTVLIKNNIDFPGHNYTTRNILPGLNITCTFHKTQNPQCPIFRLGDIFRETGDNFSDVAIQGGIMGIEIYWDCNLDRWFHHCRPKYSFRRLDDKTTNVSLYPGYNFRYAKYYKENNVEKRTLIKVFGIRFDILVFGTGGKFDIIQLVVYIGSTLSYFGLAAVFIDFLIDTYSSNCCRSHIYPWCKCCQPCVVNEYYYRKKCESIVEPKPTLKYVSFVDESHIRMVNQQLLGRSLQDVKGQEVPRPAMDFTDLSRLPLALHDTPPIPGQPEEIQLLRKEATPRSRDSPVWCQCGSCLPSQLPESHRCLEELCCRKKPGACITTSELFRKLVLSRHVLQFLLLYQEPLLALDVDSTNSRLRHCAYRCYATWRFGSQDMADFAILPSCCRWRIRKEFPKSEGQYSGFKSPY

in vitro [3] = settings: rat, liver microsomes
Description: Extraction ratio in rat liver microsomes at 1 uM upto 60 mins in presence of NDPH by LC/MS/MS analysis

in vitro [4] = settings: human, liver microsomes
Description: Extraction ratio in human liver microsomes at 1 uM upto 60 mins in presence of NDPH by LC/MS/MS analysis

[5] = Solubility of compound in phosphate buffer at pH 2 at room temperature after 3 days
[6] = biological target: Voltage-gated inwardly rectifying potassium channel KCNH2 (Homo sapiens, UniProt Q12809); experiment: Displacement of [3H]astemizole from human ERG expressed in HEK293 cells by competitive binding assay; format: cell-based
Sequence of Voltage-gated inwardly rectifying potassium channel KCNH2 (Q12809 whole entry): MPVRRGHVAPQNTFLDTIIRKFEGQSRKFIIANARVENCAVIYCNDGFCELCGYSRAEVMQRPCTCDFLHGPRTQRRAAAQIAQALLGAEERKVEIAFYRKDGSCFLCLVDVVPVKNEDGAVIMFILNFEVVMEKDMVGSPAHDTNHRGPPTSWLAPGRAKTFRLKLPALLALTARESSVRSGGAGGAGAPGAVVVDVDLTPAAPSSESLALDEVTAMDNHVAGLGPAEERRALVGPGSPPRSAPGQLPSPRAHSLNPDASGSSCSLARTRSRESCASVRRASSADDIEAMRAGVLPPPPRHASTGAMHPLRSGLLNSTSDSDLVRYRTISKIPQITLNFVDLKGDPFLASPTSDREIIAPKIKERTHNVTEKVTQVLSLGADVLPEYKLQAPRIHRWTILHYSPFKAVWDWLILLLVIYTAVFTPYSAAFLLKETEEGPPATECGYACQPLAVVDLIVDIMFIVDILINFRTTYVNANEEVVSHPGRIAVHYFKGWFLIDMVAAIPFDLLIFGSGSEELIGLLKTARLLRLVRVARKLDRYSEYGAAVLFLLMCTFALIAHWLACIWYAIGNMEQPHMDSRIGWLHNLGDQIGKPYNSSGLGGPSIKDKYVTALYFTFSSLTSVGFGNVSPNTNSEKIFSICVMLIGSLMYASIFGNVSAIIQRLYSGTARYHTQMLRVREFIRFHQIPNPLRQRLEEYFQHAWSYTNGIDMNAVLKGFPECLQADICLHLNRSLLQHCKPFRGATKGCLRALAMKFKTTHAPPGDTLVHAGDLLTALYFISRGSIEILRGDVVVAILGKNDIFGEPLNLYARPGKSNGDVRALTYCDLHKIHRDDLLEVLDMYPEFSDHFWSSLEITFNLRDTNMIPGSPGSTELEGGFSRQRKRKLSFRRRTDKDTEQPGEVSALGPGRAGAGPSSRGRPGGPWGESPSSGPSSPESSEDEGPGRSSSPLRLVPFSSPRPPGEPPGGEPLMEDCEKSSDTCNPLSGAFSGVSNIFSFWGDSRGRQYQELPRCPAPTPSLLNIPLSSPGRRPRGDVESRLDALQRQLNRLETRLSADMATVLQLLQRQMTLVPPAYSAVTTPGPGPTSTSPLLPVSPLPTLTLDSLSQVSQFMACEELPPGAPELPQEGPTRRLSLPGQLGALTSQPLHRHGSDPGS

Cytochrome P450 2C19 = Cytochrome P450 2C19 (Homo sapiens, UniProt P33261); experiment: Inhibition of CYP2C19 in human liver microsomes using S-mephenytoin as substrate after 15 mins by LC/MS/MS analysis; format: ADME
Sequence of Cytochrome P450 2C19 (P33261 whole entry): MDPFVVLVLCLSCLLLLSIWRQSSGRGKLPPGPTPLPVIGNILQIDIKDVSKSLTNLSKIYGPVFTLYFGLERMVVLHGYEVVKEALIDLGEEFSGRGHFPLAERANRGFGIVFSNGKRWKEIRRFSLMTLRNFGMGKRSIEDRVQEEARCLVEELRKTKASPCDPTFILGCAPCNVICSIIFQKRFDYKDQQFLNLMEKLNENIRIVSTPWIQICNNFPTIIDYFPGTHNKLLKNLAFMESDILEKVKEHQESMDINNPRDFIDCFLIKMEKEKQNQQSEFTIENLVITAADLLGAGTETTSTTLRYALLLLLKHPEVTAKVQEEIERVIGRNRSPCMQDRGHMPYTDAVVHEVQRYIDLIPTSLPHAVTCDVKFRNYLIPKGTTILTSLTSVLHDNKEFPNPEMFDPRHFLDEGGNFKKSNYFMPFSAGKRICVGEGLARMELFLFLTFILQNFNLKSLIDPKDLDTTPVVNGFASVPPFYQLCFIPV

[7] = Protein binding in human plasma at 1 uM after 6 hrs by LC/MS/MS based equilibrium dialysis method; format: ADME, cell-free; settings: read-out: PPB (converted)
[8] = Protein binding in rat plasma at 1 uM after 6 hrs by LC/MS/MS based equilibrium dialysis method; format: ADME, cell-free; settings: read-out: PPB (converted)
P2X purinoceptor 7 [9] = biological target: T3, P2X purinoceptor 7 (Mus musculus, UniProt Q9Z1M0); experiment: Antagonist activity at recombinant mouse P2X7 receptor expressed in human 1321N1 cells assessed as inhibition of Bz-ATP-induced Ca2+ flux preincubated for 30 mins followed by agonist addition measured after 180 sec by calcium-4 dye based FLIPR assay; format: cell-based
T3 sequence (Q9Z1M0 whole entry): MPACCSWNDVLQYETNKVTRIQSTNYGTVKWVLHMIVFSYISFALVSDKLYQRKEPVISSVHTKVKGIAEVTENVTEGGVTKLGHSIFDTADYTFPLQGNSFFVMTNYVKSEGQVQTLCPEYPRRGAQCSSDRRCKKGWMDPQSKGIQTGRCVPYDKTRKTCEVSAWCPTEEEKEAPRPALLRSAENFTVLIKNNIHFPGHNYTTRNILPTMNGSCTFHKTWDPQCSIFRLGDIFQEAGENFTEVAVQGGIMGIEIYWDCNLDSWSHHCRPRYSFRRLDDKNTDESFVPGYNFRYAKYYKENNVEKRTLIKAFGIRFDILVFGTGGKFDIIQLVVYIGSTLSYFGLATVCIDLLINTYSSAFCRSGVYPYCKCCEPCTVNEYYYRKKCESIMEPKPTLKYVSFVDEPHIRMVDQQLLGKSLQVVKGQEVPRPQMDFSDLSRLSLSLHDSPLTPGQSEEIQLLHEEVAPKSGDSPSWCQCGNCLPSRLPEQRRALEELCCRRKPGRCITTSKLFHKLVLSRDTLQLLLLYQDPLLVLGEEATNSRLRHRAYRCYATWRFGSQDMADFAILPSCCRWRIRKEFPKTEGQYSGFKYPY

[10] = Solubility of the compound in phosphate buffer at pH 7 at room temperature after 3 days
Cytochrome P450 2D6 = Cytochrome P450 2D6 (Homo sapiens, UniProt P10635); experiment: Inhibition of CYP2D6 in human liver microsomes using dextromethorphan as substrate after 15 mins by LC/MS/MS analysis; format: ADME
Sequence of Cytochrome P450 2D6 (P10635 whole entry): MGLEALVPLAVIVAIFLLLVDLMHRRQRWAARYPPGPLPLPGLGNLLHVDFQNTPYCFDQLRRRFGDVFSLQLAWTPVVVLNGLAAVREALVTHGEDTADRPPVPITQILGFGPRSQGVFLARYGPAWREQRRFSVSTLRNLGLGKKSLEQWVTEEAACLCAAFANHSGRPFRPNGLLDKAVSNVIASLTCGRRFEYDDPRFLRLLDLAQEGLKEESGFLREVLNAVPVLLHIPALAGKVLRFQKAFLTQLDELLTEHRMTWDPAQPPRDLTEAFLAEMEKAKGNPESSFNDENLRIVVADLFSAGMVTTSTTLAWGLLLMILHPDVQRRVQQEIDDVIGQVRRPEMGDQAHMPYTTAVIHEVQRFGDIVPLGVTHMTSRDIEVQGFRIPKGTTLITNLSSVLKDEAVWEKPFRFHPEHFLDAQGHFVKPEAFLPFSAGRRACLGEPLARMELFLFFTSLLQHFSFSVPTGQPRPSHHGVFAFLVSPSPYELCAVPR

Cytochrome P450 2C8 = biological target: T4, Cytochrome P450 2C8 (Homo sapiens, UniProt P10632); experiment: Inhibition of CYP2C8 in human liver microsomes using paclitaxel as substrate after 15 mins by LC/MS/MS analysis; format: ADME
T4 sequence (P10632 whole entry): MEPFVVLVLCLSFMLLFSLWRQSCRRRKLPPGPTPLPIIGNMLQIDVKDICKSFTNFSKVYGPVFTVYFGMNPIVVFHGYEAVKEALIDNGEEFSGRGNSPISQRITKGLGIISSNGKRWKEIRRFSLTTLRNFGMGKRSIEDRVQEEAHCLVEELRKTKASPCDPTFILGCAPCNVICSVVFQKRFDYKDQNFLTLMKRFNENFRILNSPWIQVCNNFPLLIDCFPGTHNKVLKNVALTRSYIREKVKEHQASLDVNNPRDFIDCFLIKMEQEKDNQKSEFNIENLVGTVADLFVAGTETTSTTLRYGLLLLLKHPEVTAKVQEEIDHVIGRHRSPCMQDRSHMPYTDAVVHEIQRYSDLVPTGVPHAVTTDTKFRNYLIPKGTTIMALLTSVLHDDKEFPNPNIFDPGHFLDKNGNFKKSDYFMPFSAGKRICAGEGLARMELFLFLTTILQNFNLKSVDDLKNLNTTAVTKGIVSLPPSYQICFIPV

Cytochrome P450 2C9 = Cytochrome P450 2C9 (Homo sapiens, UniProt P11712); experiment: Inhibition of CYP2C9 in human liver microsomes using diclofenac as substrate after 15 mins by LC/MS/MS analysis; format: ADME
Sequence of Cytochrome P450 2C9 (P11712 whole entry): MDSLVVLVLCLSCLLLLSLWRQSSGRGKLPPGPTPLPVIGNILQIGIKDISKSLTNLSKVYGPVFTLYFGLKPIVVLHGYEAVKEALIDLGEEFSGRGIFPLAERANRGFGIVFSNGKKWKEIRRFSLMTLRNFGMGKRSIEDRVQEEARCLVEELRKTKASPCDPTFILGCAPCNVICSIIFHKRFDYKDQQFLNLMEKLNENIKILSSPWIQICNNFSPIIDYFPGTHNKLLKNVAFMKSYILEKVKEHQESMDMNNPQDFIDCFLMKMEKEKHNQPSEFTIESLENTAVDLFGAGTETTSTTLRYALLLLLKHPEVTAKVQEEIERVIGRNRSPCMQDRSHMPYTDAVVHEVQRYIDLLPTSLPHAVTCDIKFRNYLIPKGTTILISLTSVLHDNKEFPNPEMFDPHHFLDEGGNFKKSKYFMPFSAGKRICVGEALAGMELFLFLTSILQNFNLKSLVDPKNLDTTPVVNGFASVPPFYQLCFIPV

Cytochrome P450 1A2 = biological target: T5, Cytochrome P450 1A2 (Homo sapiens, UniProt P05177); experiment: Inhibition of CYP1A2 in human liver microsomes using phenacetin as substrate after 15 mins by LC/MS/MS analysis; format: ADME
T5 sequence (P05177 whole entry): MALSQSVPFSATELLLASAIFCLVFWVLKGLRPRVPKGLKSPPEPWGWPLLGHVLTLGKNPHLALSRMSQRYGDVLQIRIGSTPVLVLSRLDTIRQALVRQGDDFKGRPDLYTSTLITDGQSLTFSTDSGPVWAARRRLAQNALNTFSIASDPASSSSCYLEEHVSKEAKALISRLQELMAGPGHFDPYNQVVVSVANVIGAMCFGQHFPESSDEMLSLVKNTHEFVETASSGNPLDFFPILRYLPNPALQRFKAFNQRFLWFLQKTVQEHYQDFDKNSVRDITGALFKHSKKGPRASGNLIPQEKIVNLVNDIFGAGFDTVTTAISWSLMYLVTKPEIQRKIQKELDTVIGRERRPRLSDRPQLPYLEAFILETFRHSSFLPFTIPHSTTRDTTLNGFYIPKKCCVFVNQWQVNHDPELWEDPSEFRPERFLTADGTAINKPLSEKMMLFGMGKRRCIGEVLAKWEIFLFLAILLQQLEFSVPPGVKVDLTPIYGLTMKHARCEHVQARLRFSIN

CYP3A4 [11] = biological target: T6, CYP3A4 (Homo sapiens, UniProt P08684); experiment: Inhibition of CYP3A4 in human liver microsomes using midazolam as substrate assessed as reduction in 4-OH-midazolam formation at 0.01 uM by LC/MS/MS analysis; settings: probe midazolam
T6 sequence (P08684 whole entry): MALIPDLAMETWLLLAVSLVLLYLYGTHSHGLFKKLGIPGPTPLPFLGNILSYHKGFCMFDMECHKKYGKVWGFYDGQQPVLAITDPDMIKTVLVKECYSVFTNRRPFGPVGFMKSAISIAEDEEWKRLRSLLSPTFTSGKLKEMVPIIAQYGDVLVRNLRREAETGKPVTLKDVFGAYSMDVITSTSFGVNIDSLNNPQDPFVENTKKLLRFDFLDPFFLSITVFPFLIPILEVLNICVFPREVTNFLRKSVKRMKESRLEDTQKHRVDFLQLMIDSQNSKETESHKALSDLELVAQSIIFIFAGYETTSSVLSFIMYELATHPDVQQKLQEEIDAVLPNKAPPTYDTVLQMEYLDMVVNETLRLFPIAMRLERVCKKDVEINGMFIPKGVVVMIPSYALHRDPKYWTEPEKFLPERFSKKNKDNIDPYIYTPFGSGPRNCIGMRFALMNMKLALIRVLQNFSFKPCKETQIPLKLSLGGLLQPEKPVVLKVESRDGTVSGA

CYP3A4 [12] = biological target: T6, CYP3A4; experiment: Inhibition of CYP3A4 in human liver microsomes using midazolam as substrate assessed as reduction in 1-OH-midazolam formation at 0.01 uM by LC/MS/MS analysis; settings: probe midazolam
CYP3A4 [13] = biological target: T6, CYP3A4; experiment: Inhibition of CYP3A4 in human liver microsomes using midazolam as substrate assessed as reduction in 1-OH-midazolam formation at 0.02 uM by LC/MS/MS analysis; settings: probe midazolam
CYP3A4 [14] = biological target: T6, CYP3A4; experiment: Inhibition of CYP3A4 in human liver microsomes using midazolam as substrate assessed as reduction in 4-OH-midazolam formation at 0.02 uM by LC/MS/MS analysis; settings: probe midazolam

| SMILES | IC50 (P2X purinoceptor 7 [2]) [nM] | solubility at 72 h [5] [µM] | fraction unbound at 6 h, 1 µM [7] | fraction unbound at 6 h, 1 µM [8] | IC50 (P2X purinoceptor 7 [9]) [nM] | solubility at 72 h [10] [µM] | other results |
| --- | --- | --- | --- | --- | --- | --- | --- |
| O=C(c1cccc(C(F)(F)F)c1Cl)N1CCc2c(ncn2-c2cnccn2)C1 | 9 |  |  |  |  |  |  |
| C[C@@H]1c2ncn(-c3ncc(F)cn3)c2CCN1C(=O)c1cccc(C(F)(F)F)c1Cl |  | > 400 | 0.048 | 0.038 | 38 | 4 (≈ 1.76 µg/mL) | IC50 [6]: > 10000 nM; IC50 (Cytochrome P450 2C19): 7800 nM |
| C[C@@H]1c2ncn(-c3ccc(F)cc3)c2CCN1C(=O)c1cccc(C(F)(F)F)c1Cl |  | 165 (≈ 72.2 µg/mL) | 0.04 | 0.025 | 45 | 14 (≈ 6.13 µg/mL) |  |
| O=C(c1cccc(C(F)(F)F)c1Cl)N1CCc2c(ncn2-c2ccccc2)C1 |  |  |  |  |  |  | hepatic extraction ratio at 1 h, 1 µM (in vitro [3]): 0.89; hepatic extraction ratio at 1 h, 1 µM (in vitro [4]): 0.94 |
| O=C(c1cccc(C(F)(F)F)c1F)N1CCc2c(ncn2-c2ccc(F)cn2)C1 |  |  |  |  |  |  | IC50 (P2X purinoceptor 7 [1]): > 10000 nM |
| CC(=O)N1CCN(c2ccc(OCC3COC(Cn4ccnc4)(c4ccc(Cl)cc4Cl)O3)cc2)CC1 (configuration not stated) [KETOCONAZOLE] |  |  |  |  |  |  | inhibition at 0.01 µM (CYP3A4 [11]): 57%; inhibition at 0.01 µM (CYP3A4 [12]): 53%; inhibition at 0.02 µM (CYP3A4 [13]): 70%; inhibition at 0.02 µM (CYP3A4 [14]): 74% |
| O=C(c1cccc(C(F)(F)F)c1Cl)N1CCc2c(ncn2-c2ccccn2)C1 | 4 |  |  |  |  |  |  |

Now from value to compound, other results behind:

| IC50 (P2X purinoceptor 7 [2]) [nM] | solubility at 72 h [5] [µM] | fraction unbound at 6 h, 1 µM [7] | fraction unbound at 6 h, 1 µM [8] | IC50 (P2X purinoceptor 7 [9]) [nM] | solubility at 72 h [10] [µM] | SMILES | other results |
| --- | --- | --- | --- | --- | --- | --- | --- |
| 77 |  |  |  |  |  | CC1c2ncn(-c3cnccn3)c2CCN1C(=O)c1cccc(C(F)(F)F)c1Cl (configuration not stated) | IC50 (P2X purinoceptor 7 [1]): 1230 nM; hepatic extraction ratio at 1 h, 1 µM (in vitro [3]): 0.84; hepatic extraction ratio at 1 h, 1 µM (in vitro [4]): 0.77 |
|  | > 400 | 0.047 | 0.026 | 20 | 20 (≈ 8.42 µg/mL) | C[C@@H]1c2ncn(-c3ccccn3)c2CCN1C(=O)c1cccc(C(F)(F)F)c1Cl | IC50 [6]: > 10000 nM; IC50 (Cytochrome P450 2C19): > 10000 nM; IC50 (Cytochrome P450 2D6): > 10000 nM; IC50 (Cytochrome P450 2C8): > 10000 nM; IC50 (Cytochrome P450 2C9): > 10000 nM; IC50 (Cytochrome P450 1A2): > 10000 nM |
| 9 |  |  |  |  |  | CC1c2ncn(-c3ncccc3F)c2CCN1C(=O)c1cccc(C(F)(F)F)c1Cl (configuration not stated) |  |
